Drawing on ChEMBL document CHEMBL3507680, “University of Dundee, Gates Library screen for HepG2 cell viability”, this text covers cytotoxicity for 73 molecules.

Each structure is given as a SMILES string.

A short description of the series: Human HepG2 cell viability assay in 384 well format. It counts as toxicity, cell-based. Details: dose 125 nL, time 70.5 hour; concentration not given beside the values. Particulars: HepG2 cells, read-out: Inhibition.
Turning to `Cc1cnn(CC2CN(c3ncnc4[nH]ccc34)CCO2)c1` (stereo not drawn), the cytotoxicity at 70.5 h turned out to be 1.56%.
Then `O=C(Nc1ccccc1)N1CCN(Cc2noc(C3CC3)n2)CC1`, with -7.64%; and `Cc1ccccc1NC(=O)N1CCN(Cc2noc(C3CC3)n2)CC1`, with 1.73%.
Then `CCn1ncc2c1CCCC2NCc1ccc2c(c1)CCO2` (stereo not drawn), with -0.486%; and `COc1ccc(COCC(O)CNC(=O)c2cccc(OC)c2)cc1` (stereo not drawn), with -0.933%.
Then `CCc1n[nH]c(C2CN(CCCS(C)(=O)=O)CCO2)n1` (stereo not drawn), with 32.1%; and `CC(C)n1ccnc1CN1CCCN(C(=O)CC2CCCO2)CC1` (stereo not drawn), with 23.9%.
Regarding `FC(F)(F)COCCN1CCOC(Cn2cccn2)C1` (stereo not drawn), the cytotoxicity at 70.5 h is -0.0607%.
Then `COCCC(=O)N1CCCN(Cc2nccn2C(C)C)CC1`, with -1.06%; and `CC(C)(C)c1nc(CN(Cc2cccs2)CC2CCCO2)no1` (stereo not drawn), with 3.58%.
The figure for `CCc1n[nH]c(C2CN(CCS(C)(=O)=O)CCO2)n1` (stereo not drawn) is -0.712%; for `Cn1ccnc1CN1CCCN(C(=O)COC2CCCC2)CC1` it is -2.98%.
Then `CCc1nc(CN2CCCN(c3nn4cc(C)nc4s3)CC2)no1`, with 23.9%; and `O=C(Cc1csc(-c2ccco2)n1)N1CCSCC1`, with -11.7%; and `Cc1ccc(C(=O)NC2CCN(Cc3cccc4c3OCCO4)CC2)s1`, with -2.59%.
On to `Cc1cccc(C2(C(=O)NCC3CCN(CC(F)(F)F)C3)CCC2)c1` (stereo not drawn), for which the cytotoxicity at 70.5 h was -1.39%.
The figure for `CNC(=O)C1CCN(C(=O)NCCc2ccc(Cl)s2)CC1` is -5.01%.
Then `c1ccc(-n2ccc(CN3CCCC(Cn4cncn4)C3)n2)cc1` (stereo not drawn), with 0.226%; and `COc1cccc(C(=O)N2CCC(Nc3ccc(C)nn3)CC2)c1`, with 1.25%.
The figure for `Cc1ccc(F)c(C(=O)N2CCC(Nc3ccc(C)nn3)CC2)c1` is -2.35%.
As for `CCn1c(C)cc(C(=O)N2CCc3nnc(N)cc3C2)c1C`, the cytotoxicity at 70.5 h was -0.105%.
As to `O=C(O)c1cc(S(=O)(=O)Nc2ccc(F)cc2Cl)cc2c1OCCO2`, the cytotoxicity at 70.5 h is 0.949%.
The figure for `O=C(O)c1cc(S(=O)(=O)Nc2ccc(F)c(Cl)c2)cc2c1OCCO2` is 3.36%; for `O=C(O)c1cc(S(=O)(=O)Nc2cc(F)cc(F)c2)cc2c1OCCO2` it is -4.5%; for `c1cnnc(N2CCCC2CNc2ncnc3ccsc23)c1` (stereo not drawn) it is -1.29%.
Consider `CC(C)N1CCN(C(=O)Cc2csc(-c3ccco3)n2)CC1`, for which the cytotoxicity at 70.5 h is -0.696%.
The figure for `CNC(=O)CS(=O)(=O)Cc1cc(Cl)c2c(c1)OCCCO2` is 25.7%.
The figure for `COc1ccc(S(=O)(=O)NCc2cccnc2N(C)C)cc1F` is 40.3%.
Then `Cc1csc(NC(=O)CN2CCC(c3ccnn3CCO)CC2)n1`, with 33.6%.
Consider `c1cnn(CC2CN(Cc3ccc(-n4ccnc4)cc3)CCO2)c1` (stereo not drawn), for which the cytotoxicity at 70.5 h worked out at 12.9%.
Then `CCOc1ccnc(N2CCN(C(=O)c3cc(Cl)c[nH]3)CC2)n1`, with 25.8%.
The figure for `Cc1cnn(CCC(=O)N2CCN(c3nc(C)cs3)CC2)c1` is 30.3%; for `c1cnn(-c2ccc(CN3CCOC(Cn4cncn4)C3)cc2)c1` (stereo not drawn) it is 18.2%.
`O=C(CN1CCCCC1Cn1cncn1)NCCC1=CCCCC1` (stereo not drawn): the cytotoxicity at 70.5 h was found to be 32%.
Then `Nc1cc2c(nn1)CCN(C(=O)CC1CCCC1)C2`, with 3.78%; and `COc1c(C2CCCN2C(=O)Cc2c(C)noc2C)c(C)nn1C` (stereo not drawn), with 11%; and `CS(=O)(=O)NCCCN1CCCC1Cc1ccccc1` (stereo not drawn), with 4.23%.
The figure for `CS(=O)(=O)NCCCN1CCCCC1c1cc2ccccc2[nH]1` (stereo not drawn) is 33.9%.
Then `O=C(CN1CCCCC1Cn1cncn1)NCc1ccccn1` (stereo not drawn), with -4.27%; and `CN(Cc1ccc(F)cc1)C(=O)CN1CCCC(Cn2cncn2)C1` (stereo not drawn), with 3.89%.
In the case of `c1ccc(CN2CCCC2Cn2cncn2)nc1` (stereo not drawn), the cytotoxicity at 70.5 h is 7.22%.
Consider `CN1CCOC(CNCc2coc(-c3cccs3)n2)C1` (stereo not drawn), for which the cytotoxicity at 70.5 h was 27.5%.
Take `c1cnn(CCNCc2nnc(C3CC3)o2)c1`: the cytotoxicity at 70.5 h worked out at 48.9%.
Then `CN(C)CC1CN(c2cnc3ccccc3n2)CCO1` (stereo not drawn), with 11.3%.
Then `COc1ccc(C(O)CNc2c(C#N)c(=O)n(C)c(=O)n2C)cc1` (stereo not drawn), with 3.78%.
Then `COc1cc(C(=O)Nc2nc(C)no2)ccc1C`, with 36.1%.
On to `O=C1C(NS(=O)(=O)c2cc(F)cc(F)c2)CCN1Cc1ccccc1` (stereo not drawn), for which the cytotoxicity at 70.5 h amounted to 23.4%.
Then `COc1ccc(C2=CCN(C(=O)CN(C)Cc3ccoc3)CC2)cc1`, with 49.4%; and `CCCNC(=O)C1CCN(Cc2csc(C(C)(C)C)n2)CC1`, with -9.45%; and `Cc1cc(CN2CCN(C(c3ccccc3)c3ccccc3)CC2)no1`, with 1.19%.
Then `CC(C)(C)c1nnc(CN2CCOC(Cn3cccn3)C2)o1` (stereo not drawn), with 5.79%.
Then `Cc1cccc(C2(CNC(=O)CCNS(C)(=O)=O)CCCC2)c1`, with 27%.
Consider `CC(C)c1n[nH]c(C(=O)Nc2ccncc2)c1Br`, for which the cytotoxicity at 70.5 h was 3.41%.
As to `Cc1nc(CN2CCCC(NCCc3ccccc3Cl)C2)no1` (stereo not drawn), the cytotoxicity at 70.5 h was -6.15%.
Take `CCCNC(=O)CN1CCN(Cc2csc(C(C)(C)C)n2)CC1`: the cytotoxicity at 70.5 h stood at 4.04%.
The figure for `CCc1n[nH]c(C2CN(C(=O)c3cnc(C)s3)CCO2)n1` (stereo not drawn) is 23.1%.
The figure for `CCN1CCN(C2CCN(Cc3cc(C)on3)CC2)C1=O` is 49.1%; for `O=C(CCc1ccc(Cl)s1)N1CCCC(n2cncn2)C1` (stereo not drawn) it is 11.3%; for `CN1CCOC(CNCc2nc(-c3ccccc3)cs2)C1` (stereo not drawn) it is 9.31%.
Then `Cc1noc(C(C)C)c1C(=O)NCC(c1ccsc1)N(C)C` (stereo not drawn), with 4.78%; and `CC(O)CN1CCN(Cc2nnc(C3CC3)o2)CC1` (stereo not drawn), with -4%; and `CN(Cc1nc(-c2ccco2)no1)C1CCCN(c2cccnn2)C1` (stereo not drawn), with -14.4%.
For `Cc1nc(CSCCC(=O)NCc2cccnc2N(C)C)cs1`, the cytotoxicity at 70.5 h was -13.6%.
The figure for `COc1cccc(CNC(=O)N2CCN(Cc3cc(C)on3)CC2)c1` is -20.5%; for `CCc1c(C(=O)NC2CCS(=O)(=O)C2)cnn1-c1ccc(F)cc1` (stereo not drawn) it is -22.6%.
In the case of `CCOc1ccc(C#N)cc1NCC(=O)Nc1cc(F)ccc1F`, the cytotoxicity at 70.5 h came out at 6.71%.
For the molecule `CCOc1ccc(C#N)cc1NCC(=O)Nc1cc(C)no1`, the cytotoxicity at 70.5 h was -14.1%.
The figure for `CCc1c(C(=O)NCC(=O)OCC2CC2)cnn1-c1ccc(C)cc1` is 27.6%.
The figure for `Cc1cc(CNC(=O)N2CCCN(Cc3ccccc3)CC2)no1` is -9.16%.
The figure for `CCN(CC1CCCO1)C(=O)Nc1ccc(F)cc1OC` (stereo not drawn) is -8.02%.
For `c1ccc(-c2cnc(CN3CCCC3Cn3cncn3)o2)cc1` (stereo not drawn), the cytotoxicity at 70.5 h was -14.6%.
The figure for `CC(C)(C)c1nnc(CN2CCN(CC(O)c3ccccc3)CC2)o1` (stereo not drawn) is -11.1%; for `Cc1cccc(NC2CCN(C(=O)Nc3cccc4[nH]ccc34)CC2)n1` it is -8.86%.
